Experimental data published in publication PMC7179653 (Antimicrobial Agents and Chemotherapy, 2020).

Assay: SAD study: safety and tolerability (TEAEs)
Type: in vivo, human
Conditions: for TEAE: Abdominal pain / TEAE: Application site rash / TEAE: Chest discomfort / TEAE: Cough / TEAE: Fatigue / TEAE: Feeling hot / TEAE: Headache / TEAE: Nasal congestion / TEAE: Rhinitis / TEAE: Sinus tachycardia / ≥1 TEAE / ≥1 drug-related TEAE / ≥1 serious TEAE / ≥1 severe TEAE: n = 6
Method: The two studies were randomized, double-blind, placebo-controlled studies that enrolled participants into sequential treatment cohorts using a 3:1 active treatment-to-placebo randomization ratio.
A sentinel dosing strategy was employed in both studies. […] In all cohorts, escalation to the next dose occurred after a safety review of the previous cohort. In the MAD study, sentinel dosing was performed in part 3, wherein participants were evaluated for safety up to 24 h after administration of the first drug combination (or placebo) on day 3, prior to enrolling additional participants.
Safety assessments included monitoring of AEs, laboratory safety tests (hematology, serum chemistry, and urinalysis), 12-lead ECG (discrete recordings and 24-h Holter recording), and vital signs (blood pressure, pulse rate, and body temperature). In the SAD study, safety assessments were performed predose at screening, at day 1, postdose periodically on days 1, 2, and 7 (follow-up), and at early withdrawal, if relevant. Blood samples for pharmacokinetic profiling in the SAD study were collected on day 1 before the morning infusion and 0.5, 1, 1.5, 2, 3, 4, 6, 8, 12, and 24 h postinfusion start. In the MAD study, safety assessments were done predose at screening, at day 2, postdose periodically on days 1, 2, 4, 7, and 8, on days 13 to 15 (follow-up), and at early withdrawal, if relevant. In the MAD study, blood samples were collected on days 1 and 9 prior to the morning infusion and 0.5, 1, 1.5, 2, 3, 4, 6, 8, and 12 h (on day 9 only) postinfusion start. On all other days, a single predose sample was collected for pharmacokinetic evaluation prior to the morning infusion. Blood was collected into lithium-heparin tubes and stored at a nominal –80°C temperature until analysis.

NCCONC(=O)[C@@H]1CC[C@@H]2CN1C(=O)N2OS(=O)(=O)O [Nacubactam]
TEAE: Abdominal pain (SAD, 50 mg): 0 n/E
TEAE: Application site rash (SAD, 50 mg): 0 n/E
TEAE: Chest discomfort (SAD, 50 mg): 1/1
TEAE: Cough (SAD, 50 mg): 0 n/E
TEAE: Fatigue (SAD, 50 mg): 1/1
TEAE: Feeling hot (SAD, 50 mg): 0 n/E
TEAE: Headache (SAD, 50 mg): 0 n/E
TEAE: Nasal congestion (SAD, 50 mg): 1/1
TEAE: Rhinitis (SAD, 50 mg): 0 n/E
TEAE: Sinus tachycardia (SAD, 50 mg): 0 n/E
≥1 TEAE (SAD, 50 mg): 2/3
≥1 drug-related TEAE (SAD, 50 mg): 0 n/E
≥1 serious TEAE (SAD, 50 mg): 0 n
≥1 severe TEAE (SAD, 50 mg): 0 n
TEAE: Abdominal pain (SAD, 150 mg): 0 n/E
TEAE: Application site rash (SAD, 150 mg): 0 n/E
TEAE: Chest discomfort (SAD, 150 mg): 0 n/E
TEAE: Cough (SAD, 150 mg): 1/1
TEAE: Fatigue (SAD, 150 mg): 0 n/E
TEAE: Feeling hot (SAD, 150 mg): 1/1
TEAE: Headache (SAD, 150 mg): 0 n/E
TEAE: Nasal congestion (SAD, 150 mg): 0 n/E
TEAE: Rhinitis (SAD, 150 mg): 0 n/E
TEAE: Sinus tachycardia (SAD, 150 mg): 1/1
≥1 TEAE (SAD, 150 mg): 1/3
≥1 drug-related TEAE (SAD, 150 mg): 0 n/E
≥1 serious TEAE (SAD, 150 mg): 0 n
≥1 severe TEAE (SAD, 150 mg): 0 n
TEAE: Abdominal pain (SAD, 500 mg): 0 n/E
TEAE: Application site rash (SAD, 500 mg): 0 n/E
TEAE: Chest discomfort (SAD, 500 mg): 0 n/E
TEAE: Cough (SAD, 500 mg): 0 n/E
TEAE: Fatigue (SAD, 500 mg): 0 n/E
TEAE: Feeling hot (SAD, 500 mg): 0 n/E
TEAE: Headache (SAD, 500 mg): 1/1
TEAE: Nasal congestion (SAD, 500 mg): 0 n/E
TEAE: Rhinitis (SAD, 500 mg): 1/1
TEAE: Sinus tachycardia (SAD, 500 mg): 0 n/E
≥1 TEAE (SAD, 500 mg): 2/2
≥1 drug-related TEAE (SAD, 500 mg): 0 n/E
≥1 serious TEAE (SAD, 500 mg): 0 n
≥1 severe TEAE (SAD, 500 mg): 0 n
TEAE: Abdominal pain (SAD, 1,000 mg): 1/1
TEAE: Application site rash (SAD, 1,000 mg): 0 n/E
TEAE: Chest discomfort (SAD, 1,000 mg): 0 n/E
TEAE: Cough (SAD, 1,000 mg): 0 n/E
TEAE: Fatigue (SAD, 1,000 mg): 1/1
TEAE: Feeling hot (SAD, 1,000 mg): 0 n/E
TEAE: Headache (SAD, 1,000 mg): 0 n/E
TEAE: Nasal congestion (SAD, 1,000 mg): 0 n/E
TEAE: Rhinitis (SAD, 1,000 mg): 0 n/E
TEAE: Sinus tachycardia (SAD, 1,000 mg): 0 n/E
≥1 TEAE (SAD, 1,000 mg): 2/2
≥1 drug-related TEAE (SAD, 1,000 mg): 0 n/E
≥1 serious TEAE (SAD, 1,000 mg): 0 n
≥1 severe TEAE (SAD, 1,000 mg): 0 n
TEAE: Abdominal pain (SAD, 2,000 mg): 0 n/E
TEAE: Application site rash (SAD, 2,000 mg): 0 n/E
TEAE: Chest discomfort (SAD, 2,000 mg): 0 n/E
TEAE: Cough (SAD, 2,000 mg): 0 n/E
TEAE: Fatigue (SAD, 2,000 mg): 0 n/E
TEAE: Feeling hot (SAD, 2,000 mg): 0 n/E
TEAE: Headache (SAD, 2,000 mg): 1/1
TEAE: Nasal congestion (SAD, 2,000 mg): 0 n/E
TEAE: Rhinitis (SAD, 2,000 mg): 0 n/E
TEAE: Sinus tachycardia (SAD, 2,000 mg): 0 n/E
≥1 TEAE (SAD, 2,000 mg): 1/1
≥1 drug-related TEAE (SAD, 2,000 mg): 1/1
≥1 serious TEAE (SAD, 2,000 mg): 0 n
≥1 severe TEAE (SAD, 2,000 mg): 0 n
total number of AEs (SAD, all nacubactam doses, 30 participants): 11
participants reporting one or more AEs (SAD, all nacubactam doses, eight of the 30 participants): 26.7%
